The values that follow come from patent US20120245180A1, “COMBINATION” (GlaxoSmithKline LLC, priority 2009, published 2012).

Where two headings read alike, the source gives them in different places.

Assay [1] concerns Human breast tumor cell lines. In words: Cell growth inhibition, panel of breast tumor cell lines. The format is cell-based. The protocol:
Human tumor cell lines from hepatocellular carcinoma (HCC), C3A, Hep3B, HepG2, PLC/PRF/5, SNU182, SNU387, SNU398, SNU423, SNU449 and SNU475 were purchased from the ATCC. […]
(§1) Cells were seeded in a 96-well tissue culture plate (NUNC 136102) of RPMI medium containing 10% FBS at 500-2,000 cells per well. […] ATP levels were determined by adding Cell Titer Glo® (Promega) according to the manufacturer's protocol. Briefly, Cell Titer Glo® was added to each plate, incubated for 20 minutes then luminescent signal was read on the SpectraMax L plate reader with a 0.5 sec integration time. […]
(§2) Inhibition of cell growth was estimated after treatment with compound or combination of compounds for three days and comparing the signal to cells treated with vehicle (DMSO). Cell growth was calculated relative to vehicle (DMSO) treated control wells. […]
(§3) Combination effects on potency were evaluated using the Combination Index (CI) and Excess Over Highest Single Agent (EHOSA) methods.
DNA Copy number data on the HER2 gene was collected for all breast cancer cell lines using the Affymetrix 500K chip (Affymetrix Inc, Sunnyvale, Calif.). […] All ‘SNP Chip’ images ('CEL files'), were extracted, read and normalized using the dChip software package (Lin et al. 2004. Bioinformatics. 20:1233-40). […]

The subject of assay [2] is SNU387. In words: Cell growth inhibition assay, hepatocellular carcinoma cell line (Cell Titer Glo). The conditions noted are these: Homo sapiens, SNU-387, 72 h, 3 days. The format is cell-based. The protocol: (§4) Human tumor cell lines from hepatocellular carcinoma (HCC), C3A, Hep3B, HepG2, PLC/PRF/5, SNU182, SNU387, SNU398, SNU423, SNU449 and SNU475 were purchased from the ATCC. Human breast tumor cell lines, HCC2218, HCC1419, BT-474, SK-BR-3, UACC893, JIMT-1, MDA-MB-361, HCC202, MDA-MB-175-VII, HCC1569, HCC1937, HCC38, MDA-MB-157, HCC1954, HCC1500, BT483, KPL-1, SUM225 and ZR-75-1 from ATCC, SUM52 and SUM190 from Asterand, PLC (Detroit Mich.), were cultured in RPMI 1640 medium containing 10% FBS; SKBR3-W13 and BT-474-J4 cultured in RPMI 1640 medium containing 10% FBS and 1 μM lapatinib; KPL4 line was kindly provided by Dr Junichi Kurebayashi (Kawasaki Medical School, Okayama, Japan) and cultured in DMEM containing 5% FBS. JIMT-1 from European Collection of Cell Cultures (UK), is a line derived from a patient clinically resistant to trastuzumab (Herceptin®). SK-BR-3-W13 is a single cell clone isolated by a cloning cylinder after a single treatment of SK-BR-3 cells with 0.5 μM lapatinib. BT-474-J4 is a single cell clone derived from a pool of BT-474 cells that were selected to grow in lapatinib to a concentration of 3 μM.
(§5) Cells were seeded in a 96-well tissue culture plate (NUNC 136102) of RPMI medium containing 10% FBS at 500-2,000 cells per well. Approximately 24 hours after plating, cells were exposed to ten, two-fold or three-fold serial dilutions of either Compound A or B or the combination of the two agents at a 2:1 molar ratio (Compounds A and B respectively). In some cases, cells were grown in RPMI media containing 10% FBS and in the presence or absence of 2 ng/mL hepatocyte growth factor (HGF). Cells were incubated in the presence of compounds for 3 days. ATP levels were determined by adding Cell Titer Glo® (Promega) according to the manufacturer's protocol. Briefly, Cell Titer Glo® was added to each plate, incubated for 20 minutes then luminescent signal was read on the SpectraMax L plate reader with a 0.5 sec integration time. All assays were run at least in duplicate.
(§6) Inhibition of cell growth was estimated after treatment with compound or combination of compounds for three days and comparing the signal to cells treated with vehicle (DMSO). Cell growth was calculated relative to vehicle (DMSO) treated control wells. Concentration of compound that inhibits 50% of control cell growth (IC50) was back-interpolated when y=50% of DMSO treated control wells using nonlinear regression with the equation: […]
(§7) where A is the minimum response (ymin), B is the maximum response (Ymax), C is the inflection point of the curve (EC50) and D is the Hill coefficient.
as §3
A general note: In ATP-based viability assays light output follows the ATP content of the culture.

The test system of assay [3] is HepG2. The description is as above. The format is cell-based. To be noted: Homo sapiens, HepG2, 72 h, 3 days. The protocol:
as §4, §5, §6, §7, §3

Assay [4] concerns SNU475. The description is as above. The format is cell-based. The conditions noted are these: Homo sapiens, SNU-475, 72 h, 3 days. The procedure:
as §4, §5, §6, §7, §3

Assay [5] concerns Hep3B. The description is as above. Type of assay: cell-based. To be noted: Homo sapiens, 72 h, 3 days. The protocol: as §4, §5, §6, §7, §3
The subject of assay [6] is SNU182. The description is as above. To be noted: Homo sapiens, SNU-182, 72 h, 3 days. The format is cell-based. The protocol:
as §4, §5, §6, §7, §3

In assay [7] the test system is PLC/RF/5. Described as above. Type of assay: cell-based. To be noted: Homo sapiens, 72 h, 3 days. The protocol:
as §4, §5, §6, §7, §3

Assay [8] deals with SNU423. The assay is described as above. The format is cell-based. The conditions noted are these: Homo sapiens, SNU-423, 72 h, 3 days. The protocol:
as §4, §5, §6, §7, §3

Assay [9] concerns C3A. Described as above. The format is cell-based. The conditions noted are these: Homo sapiens, 72 h, 3 days. The procedure:
as §4, §5, §6, §7, §3

Assay [10] has as its system SNU398. Described as above. The format is cell-based. The conditions noted are these: Homo sapiens, SNU-398, 72 h, 3 days. The procedure:
as §4, §5, §6, §7, §3

The test system of assay [11] is SNU449. Described as above. Type of assay: cell-based, human. The conditions noted are these: 3 days. The procedure:
as §4, §1, §2, §3

In assay [12] the test system is hepatocellular carcinoma (HCC) cell lines. Description: Cell growth inhibition, panel of 10 HCC cell lines. Type of assay: cell-based, human. To be noted: for IC50: Homo sapiens. The protocol: as §4, §5, §6, §7, §3
[13] abbreviates: HGF + (2 ng/ml), read-out: Single agent IC50, Compound A.
The mark [14] stands for this setting: HGF −, read-out: Single agent IC50, Compound A.
[15] abbreviates: HGF + (2 ng/ml), read-out: Single agent IC50, Compound B.
Where [16] appears, read: HGF −, read-out: Single agent IC50, Compound B.

For `CC(=O)Nc1cccc(-n2c(=O)n(C3CC3)c(=O)c3c(Nc4ccc(I)cc4F)n(C)c(=O)c(C)c32)c1` [Compound A, N-{3-[3-cyclopropyl-5-[(2-fluoro-4-iodophenyl)amino]-6,8-dimethyl-2,4,7-trioxo-3,4,6,7-tetrahydropyrido[4,3-d]pyrimidin-1(2H)-yl]phenyl}acetamide], the IC50 (usually the concentration that inhibits the measured activity by half) in [1] (SUM52 and MDA-MB-17511) is ≤ 99 nM; in [2] (SNU387, HGF + (2 ng/ml), read-out: Single agent IC50, Compound A) it was 94 ± 21 nM; in assay [2] (SNU387, HGF −, read-out: Single agent IC50, Compound A), 74 ± 46 nM; in assay [3] (HepG2, HGF + (2 ng/ml), read-out: Single agent IC50, Compound A), 3 ± 1 nM; in [3] (HepG2, HGF −, read-out: Single agent IC50, Compound A), 1 nM; in assay [4] (SNU475, HGF + (2 ng/ml), read-out: Single agent IC50, Compound A) it was > 5000 nM. For the same molecule, the IC50 in assay [4] (SNU475, HGF −, read-out: Single agent IC50, Compound A) is > 5000 nM; in assay [5] (setting [13]), 37 ± 8 nM; in assay [5] (setting [14]), 26 ± 8 nM; in [6] (SNU182, HGF + (2 ng/ml), read-out: Single agent IC50, Compound A), 1280 ± 1220 nM; in [6] (SNU182, HGF −, read-out: Single agent IC50, Compound A), 1760 ± 224 nM; in assay [7] (PLC/RF/5, HGF + (2 ng/ml), read-out: Single agent IC50, Compound A) it was 2870 ± 1560 nM. The IC50 in assay [7] (PLC/RF/5, HGF −, read-out: Single agent IC50, Compound A) is 1600 ± 509 nM; in [8] (SNU423, HGF + (2 ng/ml), read-out: Single agent IC50, Compound A), 577 ± 569 nM; in [8] (SNU423, HGF −, read-out: Single agent IC50, Compound A), 218 ± 130 nM; in assay [9] (setting [13]), 36 ± 11 nM; in assay [9] (setting [14]) it was 10 ± 3 nM; in [10] (SNU398, HGF + (2 ng/ml), read-out: Single agent IC50, Compound A) it was > 5000 nM. Besides, the IC50 in assay [10] (SNU398, HGF −, read-out: Single agent IC50, Compound A) is > 5000 nM; in assay [11] (Homo sapiens, SNU-449, 72 h, SNU449, HGF −, read-out: Single agent IC50, Compound A), > 5000 nM; in [11] (SNU449, HGF + (2 ng/ml), read-out: Single agent IC50, Compound A) it was > 5000 nM; in assay [12] (SNU 182 and PLC/PRF/5 epithelial-like cell lines) it was 1200 to 2800 nM; in assay [12] (epithelial-like HCC cell lines HepG2, C3A and Hep3B) it was < 37 nM; in assay [12] (mesenchymal-like HCC cell lines SNU387 and SNU423), 74 to 577 nM. The “sensitivity to cell growth inhibition” value in assay [12] (mesenchymal-like cell lines SNU398, SNU449 and SNU475) was “not sensitive”.
For `COc1ncc(-c2ccc3nccc(-c4ccnnc4)c3c2)cc1NS(=O)(=O)c1ccc(F)cc1F` [Compound B, 2,4-difluoro-N-{2-(methyloxy)-5-[4-(4-pyridazinyl)-6-quinolinyl]-3-pyridinyl}benzenesulfonamide], the IC50 was < 100 nM in assay [1] (all lines except HCC1937, SK-Br-3-W13 and MDA-MB-157); 71 ± 10 nM in assay [2] (SNU387, HGF + (2 ng/ml), read-out: Single agent IC50, Compound B); 103 ± 10 nM in assay [2] (SNU387, HGF −, read-out: Single agent IC50, Compound B); 9 ± 5 nM in assay [3] (HepG2, HGF + (2 ng/ml), read-out: Single agent IC50, Compound B); 9 ± 8 nM in assay [3] (HepG2, HGF −, read-out: Single agent IC50, Compound B); 39 ± 17 nM in [4] (SNU475, HGF + (2 ng/ml), read-out: Single agent IC50, Compound B). The IC50 in [4] (SNU475, HGF −, read-out: Single agent IC50, Compound B) worked out at 50 ± 19 nM; in assay [5] (setting [15]), 57 ± 20 nM; in assay [5] (setting [16]), 28 ± 2 nM; in assay [6] (SNU182, HGF + (2 ng/ml), read-out: Single agent IC50, Compound B), 17 ± 4 nM; in [6] (SNU182, HGF −, read-out: Single agent IC50, Compound B), 17 ± 1 nM; in [7] (PLC/RF/5, HGF + (2 ng/ml), read-out: Single agent IC50, Compound B) it was 15 ± 1 nM. Moreover, the IC50 worked out at 18 ± 12 nM in [7] (PLC/RF/5, HGF −, read-out: Single agent IC50, Compound B); 21 ± 7 nM in assay [8] (SNU423, HGF + (2 ng/ml), read-out: Single agent IC50, Compound B); 23 ± 16 nM in assay [8] (SNU423, HGF −, read-out: Single agent IC50, Compound B); 13 ± 1 nM in assay [9] (setting [15]); 13 ± 1 nM in assay [9] (setting [16]); 83 ± 2 nM in assay [10] (SNU398, HGF + (2 ng/ml), read-out: Single agent IC50, Compound B). Moreover, the IC50 in [10] (SNU398, HGF −, read-out: Single agent IC50, Compound B) was 98 ± 21 nM; in [11] (Homo sapiens, SNU-449, 72 h, SNU449, HGF −, read-out: Single agent IC50, Compound B) it was 24 ± 5 nM; in assay [12] (all 10 HCC lines) it was < 103 nM.
